Results as given in publication PMC7045694 (ACS Nano, 2020).

Biological target: T1, LBP (leucine-binding protein) (Escherichia coli, UniProt P04816)
T1 sequence (P04816 24-369): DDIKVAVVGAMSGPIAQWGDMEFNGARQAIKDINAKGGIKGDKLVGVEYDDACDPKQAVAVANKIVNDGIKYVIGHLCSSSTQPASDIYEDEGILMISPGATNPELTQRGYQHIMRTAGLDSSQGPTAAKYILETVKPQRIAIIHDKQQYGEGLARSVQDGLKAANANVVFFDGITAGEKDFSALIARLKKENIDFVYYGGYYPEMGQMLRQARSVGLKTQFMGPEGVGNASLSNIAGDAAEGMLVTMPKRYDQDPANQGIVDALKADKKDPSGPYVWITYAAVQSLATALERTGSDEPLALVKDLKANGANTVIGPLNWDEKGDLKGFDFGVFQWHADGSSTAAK

- Kd: 86 ± 19 nM
SMILES: CC(C)C[C@H](N)C(=O)O [leucine]
